Source: publication PMC7822874, “Chemoprotective antimalarials identified through quantitative high-throughput screening of Plasmodium blood and liver stage parasites” (Scientific Reports, 2021)

Assays:
[1] = system: Plasmodium falciparum Dd2 asexual blood stage parasites; assay: microbe, parasite or virus in culture; parameters: species or system Plasmodium falciparum Dd2 in human erythrocytes; single determination (one 11-point concentration-response curve); details: Plasmodium falciparum, DD2, Erythrocyte, 72 h; read-out: AC50
in vitro [2] = details: human, n = 1
in vitro [3] = details: human

Row | Structure (SMILES) | AC50 [1] [µM] | CC50 at 48 h (in vitro [2]; HepG2 cells) [µM] | viability at 66 h (in vitro [3]) [%] | CC50 at 48 h (in vitro [2]; hepg2) [µM]
1 | COc1cnc(-c2ccccn2)nc1N(C)c1ccccc1 [MLS001166302-01] | 5.96 | 13.7 |  | 
2 | CN(C)CC(O)COc1ccc(C(C)(C)c2ccc(OCC(O)CN(C)C)cc2)cc1 (stereo not drawn) [MLS001073934-01] | 8.41 | 21.7 |  | 
3 | Fc1ccc(Nc2nc3nonc3nc2Nc2cccc(C(F)(F)F)c2)cc1 [NCGC00117664-01] | 1.68 | 4.32 |  | 
4 | c1ccc(Oc2nc(-c3ccccn3)nc3ccccc23)cc1 [MLS000769533-01] | 7.5 | 9.68 |  | 
5 | Cc1c(NN=C(C#N)C(=O)c2ccccc2)c(=O)n(-c2ccccc2)n1C [MLS000567622-01] | 6.68 | 12.2 |  | 
6 | O=C(NNc1ccnc2cc(Cl)ccc12)C1CCCCC1 [MLS000770801-01] | 7.5 | 12.2 |  | 
7 | CN(C)CCNC(=O)c1nc2nc(-c3ccccc3)c(-c3cccc(F)c3)cc2n1C [NCGC00417874-01] | 19.3 | 31.4 |  | 
8 | COc1cccc(C(NC(C)=O)c2ccc3cccnc3c2O)c1 (stereo not drawn) [MLS001204096-01] | 4.22 | 12.2 |  | 
9 | COc1cnc(-c2ccccn2)nc1NC(C)C [MLS000692222-01] | 5.31 | 15.3 |  | 
10 | Oc1ccccc1C(Nc1nccs1)c1ccc2cccnc2c1O (stereo not drawn) [MLS000759877-01] |  | 19.3 |  | 
11 | c1ccc(-c2cccc(-c3ccccn3)n2)nc1 [MLS000048666-01] |  |  | 17.7 | 15.3
12 | CC(NNC(=O)C12CCC(C)(C(=O)O1)C2(C)C)=C1C=CC=CC1=O (stereo not drawn) [MLS000778293-01] |  | 12.2 |  | 
13 | Cc1cc(Cl)ccc1-c1ccc(CNC2CN(C(=O)OC(C)(C)C)C2)cc1 [NCGC00374248-01] |  | 34.3 |  | 
14 | O=C1C=CC(Cl)=CC1=CNNC(=O)c1ccncc1 [MLS000766661-01] |  | 12.2 |  | 
15 | C[n+]1c2ccccc2nc2ccc(NCCO)cc21.[O-][Cl+3]([O-])([O-])[O-] | 1.19 |  |  | 13.7
16 | O=C(c1ccc2[nH]ccc2c1)N1CCC2(CC1)NC(c1ccc(Br)cc1)=NO2 [NCGC00446987-01] |  | 24.3 |  | 
17 | CCCCC(=O)NC(c1ccc(C(C)C)cc1)c1ccc2cccnc2c1O (stereo not drawn) [MLS001204647-01] | 7.5 | 15.3 |  | 

Row | Structure (SMILES) | AC50 [1] [µM] | CC50 at 48 h (in vitro [2]; HepG2 cells) [µM] | viability at 66 h (in vitro [3]) [%] | CC50 at 48 h (in vitro [2]; hepg2) [µM]
18 | COc1ccc(-c2nc(CC3CCN(C(=O)c4n[nH]c(=O)c5ccccc45)C3)no2)cc1 (stereo not drawn) [NCGC00443252-01] |  | 19.3 |  | 
19 | O=C(Nc1nc(-c2ccccn2)cs1)c1ccc(F)c(S(=O)(=O)N2CCOCC2)c1 [MLS002162137-01] | 2.11 | 10.9 |  | 
20 | O=S(=O)(c1ccc(Cl)cc1)N1CCN(Cc2ccc(O)c3ncccc23)CC1 [MLS000774708-01] | 13.3 | 10.9 |  | 
21 | CCCOc1ccc(C(=O)Nc2ccc(-c3cc4ccccc4oc3=O)c(C)c2)cc1 [NCGC00098245-01] |  | 24.3 |  | 
22 | Nc1nc(-c2ccccn2)nc(N)c1Cc1ccccc1F [MLS000691905-01] | 13.3 | 27.3 |  | 
23 | Cc1[nH]n(-c2ccccc2)c(=O)c1/C=N/Nc1nncc(-c2ccccc2)n1 [MLS000579075-01] | 4.22 | 13.7 |  | 
24 | C=C1C(=O)OC2CC(C)C3C=CC(=O)C3(C)C(O)C12 (stereo not drawn) [MLS002701927-01] |  |  |  | 15.3
25 | O=C(Cc1ccccc1F)N1CC(Oc2ccc(-c3noc(-c4cccnc4)n3)cc2)C1 [NCGC00458031-01] |  | 19.3 |  | 
26 | COc1ccc2[nH]c(C[C@@H]3C[C@@H](C(C)C)[C@H](CNCc4ccccn4)C=C3C)nc2c1 [NCGC00391900-01] | 0.769 | 7.03 |  | 
27 | CCCCC(=O)NC(c1ccc(Cl)cc1Cl)c1ccc2cccnc2c1O (stereo not drawn) [MLS001212967-01] |  | 21.7 |  | 
28 | Cc1ccc(Nc2nc3nonc3nc2Nc2cccc(C(F)(F)F)c2)cc1Cl [NCGC00117632-01] | 2.11 | 4.32 |  | 
29 | COC1=CC=CC(=CNNc2cc(N3CCOCC3)ncn2)C1=O [MLS001202693-01] |  | 12.2 |  | 
30 | COc1ccc(Nc2nc(N3CCCCC3)c3ccccc3n2)cc1 [MLS000569818-01] |  | 30.6 |  | 
31 | Cc1cc(Nc2sc(C(=O)c3ccc(F)cc3)c(N)c2C(=O)Nc2ccc(F)cc2)ccc1Cl [NCGC00138324-01] | 0.75 | 2.73 |  | 
32 | CCNc1nc2c(c(=O)n(C)c(=O)n2C)n1Cc1ccc(F)cc1 [NCGC00142036-01] |  | 21.7 |  | 
33 | O=C1NC2(CCCN(Cc3ccccn3)C2)COc2ccccc21 (stereo not drawn) [NCGC00477540-01] | 4.85 |  |  | 3.14
34 | CC(C)c1cc(C(=O)NC2CCN(c3ncccc3C#N)CC2)n(C)n1 [NCGC00431169-01] |  | 19.3 |  | 
